Assay [1] is described as follows: Potentiation of (-)-norepinephrine-induced tissue contraction in albino Sprague-Dawley rat reserpine-treated adrenergically innervated vas deferens at 3 x 10^-6 M after 15 mins by isotonic myograph analysis. It counts as functional.
In assay [2] the test system is Vas deferens. The experiment in a line: Intrinsic activity of (-)-norepinephrine-induced tissue contraction in albino Sprague-Dawley rat reserpine-treated adrenergically innervated vas deferens at 3 x 10^-6 M after 15 mins by isotonic myograph analysis. It counts as functional.
The test system of assay [3] is Vas deferens. The experiment in a line: Intrinsic activity of (-)-norepinephrine-induced tissue contraction in albino Sprague-Dawley rat reserpine-treated adrenergically innervated vas deferens at 1 x 10^-5 to 3 x 10^-5 M after 15 mins by isotonic myograph analysis. It counts as functional, tissue-based.
A short description of assay [4]: Induction of tissue contraction in albino Sprague-Dawley rat reserpine-treated adrenergically innervated vas deferens at 3 x 10^-7 M by isotonic myograph analysis. It counts as functional.
In assay [5] the test system is Vas deferens. The experiment in a line: Intrinsic activity of (-)-norepinephrine-induced tissue contraction in albino Sprague-Dawley rat reserpine-treated adrenergically innervated vas deferens after 15 mins by isotonic myograph analysis. Type of assay: functional, tissue-based.
Assay [6] is filed under the species Rattus norvegicus. The experiment in a line: Potentiation of (-)-norepinephrine-induced tissue contraction in albino Sprague-Dawley rat reserpine-treated adrenergically innervated vas deferens at 3 x 10^-5 to 3 x 10^-4 M after 15 mins by isotonic myograph analysis. Type of assay: functional, tissue-based.
The species named for assay [7] is Rattus norvegicus. The experiment in a line: Potentiation of (-)-norepinephrine-induced tissue contraction in albino Sprague-Dawley rat reserpine-treated adrenergically innervated vas deferens after 15 mins by isotonic myograph analysis. It counts as functional, tissue-based.
Assay [8] can be described thus: Potentiation of (-)-norepinephrine-induced tissue contraction in albino Sprague-Dawley rat reserpine-treated adrenergically innervated vas deferens at 3 x 10^-4 M after 15 mins by isotonic myograph analysis. Type of assay: functional.

Activity calls are given as the source filed them. The calls are words filed in the database; no cut-off is given here. Bounds are passed on as bounds.

`CC(N)C(O)c1ccccc1` (centres undefined) [PHENYLPROPANOLAMINE]: the Activity in assay [1] is recorded as 66%; in assay [2], less than 5%. Moreover, in assay [3], the result was Active.
With `NCC(O)c1ccc(O)c(O)c1` (centres undefined), in assay [4], the Activity is recorded as 10%.
For the compound `N[C@@H]1CC[C@]1(O)c1ccccc1`, the result in assay [5] and in assay [6] was inactive.
Regarding `N[C@@H]1CC[C@@]1(O)c1ccccc1`, the outcome in assay [5] was inactive. Also, the Activity entry in assay [7] was “Dose-dependent effect”; in assay [8] it was 55%.

Source of the values: ChEMBL document CHEMBL3272088, “Stereochemical studies of adrenergic drugs. Diastereomeric 2-amino-1-phenylcyclobutanols” (1976).
